Earlier results as cited in patent publication US12030986B2, “Sustained release composition using biobased biodegradable hyperbranched polyesters” (CENTRAL MICHIGAN UNIVERSITY, priority 2014, dated 2024).

In order of falling pKa:
1. CC(=O)C(=O)O [pyruvic]  2.4
2. CNCC(=O)O [methlyglycine]  2.2
3. O=C(O)c1cccnc1 [nicotinic]  2.2
4. N[C@@H](CCC(=O)O)C(=O)O [glutamic]  2.1
5. C[C@@H](O)[C@H](N)C(=O)O [threonine]  2.1
6. N[C@@H](CC(=O)O)C(=O)O [aspartic]  2.0
7. O=C(O)/C=C(/CC(=O)O)C(=O)O [cis-aconitic]  2.0
8. O=C(O)[C@@H]1C[C@@H](O)CN1 (relative stereo) [trans-4-hydroxyproline]  1.8
9. O=P(O)(O)O[C@H]1[C@H](OP(=O)(O)O)[C@@H](OP(=O)(O)O)[C@H](OP(=O)(O)O)[C@@H](OP(=O)(O)O)[C@H]1OP(=O)(O)O [Phytic, phytic acid]  1.8
10. N[C@@H](CCSSCC[C@H](N)C(=O)O)C(=O)O [homocystine]  1.6
11. NC(CS(=O)(=O)O)C(=O)O (stereo not drawn) [cysteic]  1.3
12. O=C(O)c1ccccn1 [picolinic acid]  1.0
